Where a name gives a salt, the structure may show the parent alone.
Target: T1, human NCX1 (Homo sapiens, UniProt P32418)
T1 construct: expressed in transfected cells
Test: Inhibition of Ca2+ influx into cells (NCX1 reverse mode), FLIPR Fluo-4 assay
Type: cell-based
Details: inhibition of NCX1 in reverse mode (Ca2+ influx into cells); read-out: NCX1rv IC50
How it was run: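 CHO cells stably expressing human NCX1, loaded with Fluo-4 AM, preincubated with compound 45 min at 16 °C in pH 7.4 buffer (3.5 mM CaCl2). Reverse mode triggered by 20 µM gramicidin (final); Fluo-4 fluorescence read at 520 nm every 2 s. IC50 from percentage inhibition of max-minus-min fluorescence.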

Structure (SMILES): Cc1n[nH]cc1CN[C@H]1CC[C@H](Oc2ccc3c(c2)CCC(c2ccccc2)O3)CC1 (stereo partly drawn) [compound 66]
- IC50: 400 nM

Structure (SMILES): Cc1ncsc1CN[C@H]1CC[C@H](Oc2ccc3c(c2)CCC(c2ccccc2)O3)CC1 (stereo partly drawn) [compound 67, N-(4-Methylthiazol-5-ylmethyl)-[trans-4-(2-phenylchroman-6-yloxy)]-cyclohexylamine]
- IC50: 400 nM

Structure (SMILES): CCn1cc(CN[C@H]2CC[C@H](Oc3ccc4c(c3)CCC(c3ccccc3)O4)CC2)c(C)n1 (stereo partly drawn) [compound 68, N-(1-Ethyl-3-methyl-pyrazol-4-ylmethyl)-[trans-4-(2-phenylchroman-6-yloxy)]-cyclohexylamine]
- IC50: 300 nM

Structure (SMILES): Clc1ccc(CN[C@H]2CC[C@H](Oc3ccc4c(c3)CCC(c3ccccc3)O4)CC2)s1 (stereo partly drawn) [compound 69, N-(5-Chloro-thiophen-2-ylmethyl)-[trans-4-(2-phenylchroman-6-yloxy)]-cyclohexylamine]
- IC50: 1300 nM

Structure (SMILES): CCC(C)CN[C@H]1CC[C@H](Oc2ccc3c(c2)CCC(c2ccccc2)O3)CC1 (stereo partly drawn) [compound 70, N-(2-methylbutyl)-[trans-4-(2-phenylchroman-6-yloxy)]-cyclohexylamine]
- IC50: 500 nM

Structure (SMILES): CN[C@@H](C)C(=O)N[C@H]1CC[C@H](Oc2ccc3c(c2)CCC(c2ccccc2)O3)CC1 (stereo partly drawn) [compound 71, hydrochloride]
- IC50: 600 nM

Structure (SMILES): C[C@@H](N)C(=O)N[C@H]1CC[C@H](Oc2ccc3c(c2)CCC(c2ccccc2)O3)CC1 (stereo partly drawn) [compound 72, hydrochloride]
- IC50: 300 nM

Structure (SMILES): OC1CCC(Oc2ccc3c(c2)CCC(c2ccccc2)O3)CC1 (stereo not drawn) [compound 74, 4-(2-Phenylchroman-6-yloxy)cyclohexanol]
- IC50: 300 nM

Structure (SMILES): O=S(=O)(CCc1ccncc1)N[C@H]1CC[C@H](Oc2ccc3c(c2)CC[C@@H](c2ccccc2)O3)CC1 [compound 75]
- IC50: 1000 nM

Structure (SMILES): CCn1nccc1CNC1CCC(Oc2ccc3c(c2)CCC(c2ccccc2)O3)CC1 (stereo not drawn) [compound 76]
- IC50: 1000 nM

Structure (SMILES): O=C1CCC(Oc2ccc3c(c2)CCC(c2ccccc2)O3)CC1 (stereo not drawn) [compound 77, 4-(2-Phenylchroman-6-yloxy)cyclohexanone]
- IC50: 400 nM

Structure (SMILES): CC(=O)OC1CCC(Oc2ccc3c(c2)CCC(c2ccccc2)O3)CC1 (stereo not drawn) [compound 78, [4-(2-Phenylchroman-6-yloxy)cyclohexyl] acetate]
- IC50: 600 nM

Structure (SMILES): c1ccc(C2CCc3cc(O[C@H]4CC[C@H](N(Cc5ccsc5)Cc5ccsc5)CC4)ccc3O2)cc1 (stereo partly drawn) [compound 79, [trans-4-(2-Phenylchroman-6-yloxy)]-N,N-bis(thiophen-3-ylmethyl)cyclohexylamine]
- IC50: 11000 nM

Structure (SMILES): c1ccc(C2CCc3cc(O[C@H]4CC[C@H](N(CC5CC5)CC5CC5)CC4)ccc3O2)cc1 (stereo partly drawn) [compound 80, N,N-Bis(cyclopropylmethyl)-[trans-4-(2-phenylchroman-6-yloxy)]-cyclohexylamine]
- IC50: 500 nM

Structure (SMILES): Cn1cc(Cl)c(CN(Cc2nn(C)cc2Cl)[C@H]2CC[C@H](Oc3ccc4c(c3)CCC(c3ccccc3)O4)CC2)n1 (stereo partly drawn) [compound 81, N,N-Bis(4-chloro-1-methyl-pyrazol-3-ylmethyl)-[trans-4-(2-phenylchroman-6-yloxy)]-cyclohexylamine]
- IC50: 4000 nM

Structure (SMILES): Cc1cc(CN(Cc2cc(C)on2)[C@H]2CC[C@H](Oc3ccc4c(c3)CCC(c3ccccc3)O4)CC2)no1 (stereo partly drawn) [compound 82, N,N-Bis(5-methylisoxazol-3-ylmethyl)-[trans-4-(2-phenylchroman-6-yloxy)]-cyclohexylamine]
- IC50: 3800 nM

Structure (SMILES): c1ccc(C2CCc3cc(O[C@H]4CC[C@H](N(Cc5cncs5)Cc5cncs5)CC4)ccc3O2)cc1 (stereo partly drawn) [compound 83, [trans-4-(2-Phenylchroman-6-yloxy)]-N,N-bis(thiazol-5-ylmethyl)cyclohexylamine]
- IC50: 1400 nM

Structure (SMILES): Cn1ccc(CN(Cc2ccn(C)n2)[C@H]2CC[C@H](Oc3ccc4c(c3)CCC(c3ccccc3)O4)CC2)n1 (stereo partly drawn) [compound 84, N,N-Bis(1-methylpyrazol-3-ylmethyl)-[trans-4-(2-phenylchroman-6-yloxy)]-cyclohexylamine]
- IC50: 800 nM

Source: patent US9440941B2, “Substituted chroman-6-yloxy-cycloalkanes and their use as pharmaceuticals” (SANOFI, priority 2013, dated 2016)
